In article PMC7217817 (Clinical Pharmacokinetics, 2019):
Like-named read-outs stand apart in the source and are kept apart here.

How the values were obtained:
CYP3A = details: cited from earlier work
[1] = Child–Pugh A patients compared with healthy volunteers; cited from earlier work
P-gp [2] = biological target: T1, P-gp (Homo sapiens, UniProt P08183); experiment: P-gp inhibition; type: in vitro ADME; details: following administration of 150 or 200 mg of elagolix
[3] = Clinical multiple-dose pharmacokinetics of elagolix in healthy subjects; type: in vivo, human; details: for AUCτ / CL/F / Cmax: healthy subjects
[4] = cited from earlier work
[5] = single-dose elagolix 150 mg with ketoconazole 400 mg, Observed; cited from earlier work
P-gp [6] = biological target: T1, P-gp; details: in vitro and clinical studies; cited from earlier work
P-gp [7] = details: cited from earlier work; for Mean AUC∞ ratio of victim drug / Mean Cmax ratio of victim drug: Observed
[8] = midazolam with elagolix 150 mg QD, Observed
[9] = 150 mg QD (N = 6), Day 21, Observed
[10] = 200 mg BID (N = 7), Day 21, Observed
[11] = digoxin day 1 with elagolix 200 mg BID
[12] = digoxin day 10 with elagolix 200 mg BID

T1 sequence (P08183 whole entry): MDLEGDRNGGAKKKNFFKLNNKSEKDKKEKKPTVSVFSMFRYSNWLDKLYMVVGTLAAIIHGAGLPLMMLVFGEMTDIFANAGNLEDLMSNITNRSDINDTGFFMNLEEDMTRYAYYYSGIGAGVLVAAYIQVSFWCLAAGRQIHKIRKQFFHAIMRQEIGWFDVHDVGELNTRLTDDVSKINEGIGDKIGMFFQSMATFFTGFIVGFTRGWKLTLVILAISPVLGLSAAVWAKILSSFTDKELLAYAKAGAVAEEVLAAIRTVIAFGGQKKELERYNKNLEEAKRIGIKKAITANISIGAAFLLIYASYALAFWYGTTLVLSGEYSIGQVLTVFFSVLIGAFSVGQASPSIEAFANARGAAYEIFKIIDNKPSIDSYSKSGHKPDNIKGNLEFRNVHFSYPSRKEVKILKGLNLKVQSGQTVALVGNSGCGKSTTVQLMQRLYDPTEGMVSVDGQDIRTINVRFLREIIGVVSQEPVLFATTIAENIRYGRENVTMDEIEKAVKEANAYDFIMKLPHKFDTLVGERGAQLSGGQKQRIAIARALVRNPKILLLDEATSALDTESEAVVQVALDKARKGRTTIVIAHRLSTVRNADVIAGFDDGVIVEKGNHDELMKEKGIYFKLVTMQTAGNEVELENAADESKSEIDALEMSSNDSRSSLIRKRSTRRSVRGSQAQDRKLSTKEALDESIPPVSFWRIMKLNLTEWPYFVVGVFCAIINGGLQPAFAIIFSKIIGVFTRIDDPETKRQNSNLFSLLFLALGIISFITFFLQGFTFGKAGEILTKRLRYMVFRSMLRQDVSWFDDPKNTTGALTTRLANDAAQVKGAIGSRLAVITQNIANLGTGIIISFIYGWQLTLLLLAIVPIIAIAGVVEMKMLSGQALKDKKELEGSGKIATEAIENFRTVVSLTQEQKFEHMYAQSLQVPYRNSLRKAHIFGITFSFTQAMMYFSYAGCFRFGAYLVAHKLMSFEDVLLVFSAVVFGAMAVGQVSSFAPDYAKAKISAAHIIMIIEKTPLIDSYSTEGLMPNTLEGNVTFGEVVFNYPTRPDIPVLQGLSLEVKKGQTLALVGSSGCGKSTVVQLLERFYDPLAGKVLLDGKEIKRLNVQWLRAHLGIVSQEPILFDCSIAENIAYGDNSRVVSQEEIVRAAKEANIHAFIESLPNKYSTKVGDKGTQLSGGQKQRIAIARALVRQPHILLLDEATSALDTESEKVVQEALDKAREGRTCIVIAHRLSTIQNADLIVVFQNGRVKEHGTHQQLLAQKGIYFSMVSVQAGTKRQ

Structure (SMILES): Cc1ncc2n1-c1ccc(Cl)cc1C(c1ccccc1F)=NC2 [Midazolam, midazolam]
- Decrease in midazolam AUC (CYP3A; elagolix 150 mg QD, observed): 35%
- Mean AUC∞ ratio of victim drug (CYP3A; [8]): 0.65
- Mean Cmax ratio of victim drug (CYP3A; [8]): 0.81

Structure (SMILES): COc1cccc(-c2c(C)n(Cc3c(F)cccc3C(F)(F)F)c(=O)n(C[C@H](NCCCC(=O)O)c3ccccc3)c2=O)c1F [elagolix]
- Impact of hepatic impairment on elagolix exposures [1]: no impact
- Ki for P-gp below predicted intestinal elagolix concentration in the gastrointestinal lumen (P-gp [2]): approximately 500 fold
- AUCτ ([3]; 150 mg QD (N = 6), Day 1, Observed): 1331 ng●h/mL
- AUCτ [3, 9]: 1292 ng●h/mL
- CL/F [3, 9]: 123 L/h
- AUCτ ([3]; 200 mg BID (N = 7), Day 1, Observed): 1813 ng●h/mL
- AUCτ [3, 10]: 1725 ng●h/mL
- CL/F [3, 10]: 144 L/h
- Tmax ([3]; human, plasma, oral, 150 mg): 1.3 h
- half-life ([3]; human, plasma, oral, 150 mg): 6.42 h
- Cmax ([3]; human, plasma, oral, 150 mg, 150 mg QD (N = 6), Day 1, Observed): 507 ng/mL
- half-life ([3]; human, plasma, oral, 200 mg): 4.29 h
- Cmax ([3]; human, plasma, oral, 200 mg, 200 mg BID (N = 7), Day 1, Observed): 712 ng/mL
- Apparent terminal elimination half-life (t½) ([4]; clinical doses of 150 mg QD and 200 mg BID): 4 to 6 h
- Time of maximum plasma concentration (Cmax) after dosing ([4]; oral administration): 1 h
- Mean Cmax ratio of elagolix [5]: 1.77

Structure (SMILES): CO[C@H]1/C=C/O[C@@]2(C)Oc3c(C)c(O)c4c(O)c(c(/C=N/N5CCN(C)CC5)c(O)c4c3C2=O)NC(=O)/C(C)=C\C=C\[C@H](C)[C@H](O)[C@@H](C)[C@@H](O)[C@@H](C)[C@H](OC(C)=O)[C@@H]1C [Rifampin, rifampin]
- Induction of P-gp expression (P-gp [6]): four folds

Structure (SMILES): C[C@H]1O[C@@H](O[C@H]2[C@@H](O)C[C@H](O[C@H]3[C@@H](O)C[C@H](O[C@H]4CC[C@@]5(C)[C@H](CC[C@@H]6[C@@H]5C[C@@H](O)[C@]5(C)[C@@H](C7=CC(=O)OC7)CC[C@]65O)C4)O[C@@H]3C)O[C@@H]2C)C[C@H](O)[C@@H]1O [Digoxin, digoxin]
- Mean AUC∞ ratio of victim drug (P-gp [7]; [11]): 1.32
- Mean Cmax ratio of victim drug (P-gp [7]; [11]): 1.73
- Mean AUC∞ ratio of victim drug (P-gp [7]; [12]): 1.26
- Mean Cmax ratio of victim drug (P-gp [7]; [12]): 1.71
- Increase in digoxin AUC (P-gp [7]; elagolix 200 mg BID, observed): ~30%
- Increase in digoxin Cmax (P-gp [7]; elagolix 200 mg BID, observed): approximately 70%
